Experimental data published in patent US20120264159A1, “SCREENING SYSTEM FOR MODULATORS OF HER2 MEDIATED TRANSCRIPTION AND HER2 MODULATORS IDENTIFED THEREBY” (BUCK INSTITUTE FOR AGE RESEARCH, priority 2001, published 2012).
“Also recorded” adds a separate entry of the source.

What was measured:
ErbB2 promoter [1] = assay: Genomically integrated ErbB2 promoter-luciferase reporter screen in MCF/R06pGL-9 cells; type: cell-based, human; conditions: 24 h treatment
Experimental: Reporter activity was assayed as follows: From T-150 or T-75 culture flasks, about […] cells/well were plated into a 96 well plate format for high-throughput screening. 24 hours post plating a test agent e.g. a drug from a combinatorial library, was added to the wells at various concentrations. Certain wells were used as controls (e.g. PBS or DMSO vehicle only). Replicate wells ([…] per drug concentration) were run. 24 hours after addition of the test agent the cells were lysed, a luciferase reagent was added and activity in each well was read using a high-throughput screening plate reader (labsystems Fluoroskan). Parallel plates were run for cell viability using an MTT assay (Sigma).
A luciferase reporter plasmid (designated RO6pGL-luc) was constructed by inserting the ˜500 bp SmaI-SmaI fragment of the human ErbB2 proximal promoter (12) into the pGL3Basic plasmid driving a luciferase reporter gene, as has been described (10). R06pGL-luc and a plasmid expressing neomycin phosphotransferase were co-transfected into the MCF-7 cells (ATCC) using Effectene (Qiagen). Cells were selected for stable expression of luciferase and neomycin (G418)-resistance. […] The reaction was quantified by absorbance at 570 nm measured with a microplate reader (Molecular Devices) and the mean (±SD) optical density recorded after normalization by the vehicle treated controls. […]

ErbB2 promoter [2] = assay: Transiently transfected (episomal) RO6pGL ErbB2 promoter-reporter in MCF-7 cells; type: cell-based, human; conditions: transient transfection of RO6pGL into MCF-7 cells; 0.4 μM TSA, 24 hour
Experimental: FIGS. 11A and 11B show trichostatin A (TSA) responsiveness and DNase I hypersensitivity comparisons between the genomically integrated vs. episomally introduced ErbB2 promoter-reporter construct, RO6pGL, in MCF-7 cells. FIG. 11A: Luciferase activity (relative luminometer units) of the MCF/RO6pGL-9 subline compared to parental MCF-7 cells transiently transfected with the same ErbB2 promoter-reporter plasmid (RO6pGL) and after 24 hour treatment with 0.4 μM TSA, normalized against their respective non-treatment (vehicle only) control conditions. FIG. 11B: DNase 1 hypersensitivity analysis (described in Methods) of nuclei from MCF/RO6pGL-9 vs. MCF-7 cells transiently transfected with RO6pGL, following similar culture treatments with TSA.
In an episomal context and following transient transfection of the RO6pGL construct into MCF-7 cells, TSA produced diametrically opposite (>10-fold stimulatory) effects on this same ErbB2 promoter-driven reporter (FIG. 11). Southern blot comparisons of DNase I treated MCF/R06pGL-9 cell nuclei and those from transfected MCF-7 cells bearing the episomally introduced R06pGL plasmid confirmed the lack of a discrete DNase-I hypersensitivity site in the episomal R06pGL and the presence of such a site in the genomically integrated R06pGL, similar in location and intensity to that found within the endogenous ErbB2 promoter (FIG. 11). […]

[3] = system: carcinogen-induced mammary cancer; conditions: up to 5 mg/kg, cited from earlier work
MCF/R06pGL-9 cells = assay: MTT cell viability assay on MCF/R06pGL-9 cells; type: cell-based, human
Excerpt: A luciferase reporter plasmid (designated RO6pGL-luc) was constructed by inserting the ˜500 bp SmaI-SmaI fragment of the human ErbB2 proximal promoter (12) into the pGL3Basic plasmid driving a luciferase reporter gene, as has been described (10). R06pGL-luc and a plasmid expressing neomycin phosphotransferase were co-transfected into the MCF-7 cells (ATCC) using Effectene (Qiagen). Cells were selected for stable expression of luciferase and neomycin (G418)-resistance. Single cell clones including MCF/R06pGL-9 were isolated and maintained in DME H-16 medium supplemented with 10% fetal bovine serum, 10 μg/ml insulin, 100 μg/ml penicillin/streptomycin, and 500 μg/ml G418. MTT cell viability and luciferase expression assays on the MCF/RO6pGL-9 sublime were performed after plating the subline into 96-well culture dishes at a density of 10^4 cells/well in 100 μL medium. After 24 hour cell plating, TSA from stock DMSO solution was diluted into 100 μL medium and then added into eight replicate wells at the indicated concentrations. […] The reaction was quantified by absorbance at 570 nm measured with a microplate reader (Molecular Devices) and the mean (±SD) optical density recorded after normalization by the vehicle treated controls. […]

CC(/C=C/C(=O)NO)=C\[C@@H](C)C(=O)c1ccc(N(C)C)cc1 [TSA, trichostatin A]
ErbB2 promoter-reporter (luciferase) activity (ErbB2 promoter [1]): significantly represses; also recorded: significant reduction of luciferase activity | effect on episomal ErbB2 promoter-driven reporter (stimulation) (ErbB2 promoter [2]): > 10 fold | ill effects ([3]; adult or embryonic mice): no ill effects | antitumor activity ([3]; ip, sc, carcinogen-induced mammary cancer): potent antitumor activity | cell viability (MTT assay) (MCF/R06pGL-9 cells; 24 hours exposure, TSA concentrations up to 50 μM): little impact on cell viability | cell viability (MTT assay) (MCF/R06pGL-9 cells; dose <1 μM, within 24 h): does not impair cell viability
